These results are taken from patent US8591966B2, “Composition containing oils of chamomile flower and black cumin with reduced endotoxins” (Insignion Holdings Limited, priority 2007, dated 2013).

Structures are written as SMILES. Where two headings read alike, the source gives them in different places.

What all share (assay type): cell-based
The subject of experiment [1] is prostate cancer cells DU145. Briefly: DNA synthesis (3H-thymidine incorporation) in DU145. The following applies: Homo sapiens, DU-145. How it is done: (§1) ^3H-Thymidine incorporation: DU145 and U-87MG cells were harvested by trypsinisation and seeded at 10,000 cells/well in a 96 well plate. The cells were incubated with the samples at the required concentrations for 24 hrs and/or 48 hrs at 37° C. and 5% CO2. The cells were pulsed with ^3H-Thymidine (1 μCi/ml) (Perkin Elmer) for 24 hours. After which, they were washed with PBS and fixed twice with methanol for 5 min. The protein was precipitated by 0.3N TCA. After a washing step 150 μl 0.3N NaOH was added for 15 min to lyse the cells. Back ground controls were measured with the samples without cells.
(§2) To detect the incorporated ^3H-Thymidine for the DNA synthesis the samples were transferred in scintillation tubes with scintillation cocktail. The quantification was performed in a Tri-Carb 1900 TR liquid scintillation counter (Packard, USA).
(§3) The effect of several concentrations of samples was measured by determining amount of radiolabel (dpm) under the assay conditions. Dose related values were expressed as a percentage of the positive control values. Sample points were measured as quadruplicates, errors are expressed as standard deviations.

In experiment [2] the test system is glioblastoma cells U-87 MG. Briefly: DNA synthesis (3H-thymidine incorporation) in U-87MG. The following applies: Homo sapiens, 48 h incubation. The procedure: as §1, §2, §3
A general note: Uptake of a labelled nucleoside into DNA is a usual measure of proliferation.

The target in the next experiment is T1, 5-LOX (Homo sapiens, UniProt P09917).
T1 construct: endogenous in cells; host or cells: HL-60 (human myeloid leukemia, DSMZ ACC 3), differentiated with DMSO
T1 sequence (P09917 1-674): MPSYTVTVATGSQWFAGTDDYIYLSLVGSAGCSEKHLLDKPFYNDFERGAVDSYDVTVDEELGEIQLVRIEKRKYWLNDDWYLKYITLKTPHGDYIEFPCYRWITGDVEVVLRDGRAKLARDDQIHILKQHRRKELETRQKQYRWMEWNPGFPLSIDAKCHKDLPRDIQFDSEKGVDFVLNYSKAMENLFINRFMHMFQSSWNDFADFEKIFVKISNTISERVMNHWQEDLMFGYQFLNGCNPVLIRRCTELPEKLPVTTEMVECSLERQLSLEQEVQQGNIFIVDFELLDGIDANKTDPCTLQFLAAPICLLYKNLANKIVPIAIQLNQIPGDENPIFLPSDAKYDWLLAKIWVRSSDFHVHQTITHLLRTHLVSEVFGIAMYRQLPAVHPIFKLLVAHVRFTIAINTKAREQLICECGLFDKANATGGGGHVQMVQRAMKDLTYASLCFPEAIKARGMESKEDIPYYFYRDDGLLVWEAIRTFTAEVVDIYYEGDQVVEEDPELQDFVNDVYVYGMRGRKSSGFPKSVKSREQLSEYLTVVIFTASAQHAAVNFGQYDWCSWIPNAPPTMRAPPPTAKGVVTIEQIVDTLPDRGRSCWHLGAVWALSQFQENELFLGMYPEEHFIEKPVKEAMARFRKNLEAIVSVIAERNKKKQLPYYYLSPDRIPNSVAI
The experiment is described as follows: 5-LOX inhibition assay (LTB4) in differentiated HL-60 granulocytes. To be noted: reference listed under the 5-LOX IC50 table. How it is done:
Human HL-60 cells (myeloid leukemia, DSMZ No ACC 3) were kept at 37° C. in a humidified atmosphere with 5% CO2 and cultured in complete RPMI1640 medium supplemented with 10% fetal calf serum and 1% (v/v) penicillin/streptomycin solution. Cells were differentiated for 6 to 8 days with DMSO (1.2% v/v). The 5-LOX activity assay was carried out as described by Bennet et al. [ref: 2]. Briefly, differentiated cells were harvested, suspended in PBS containing Ca^2+ (1 mM) and glucose (1 mM) and distributed into a 96-well microtiter plate (1×10^6 cells/well).
After preincubation with sample or vehicle for 15 min at room temperature the reaction was started by adding calcium ionophore A 23187 (5 uM) and arachidonic acid (10 uM). All values are final concentrations. […] After neutralization with 50 μl PBS and centrifugation (340×g) for 10 min the LTB4 concentration in the supernatant was determined.
Effects of samples and reference compound [ref: 3] on the activity of 5-LOX were measured by determining the quantity of leukotriene B4 produced under assay conditions. The quantification of leukotriene B4 was performed with Enzyme Immuno Assay (EIA) Kit from Cayman No 520111 (LTB4). The optical densities were measured at wavelength=415 nm. The quantities were calculated using a standard curve of at least 5 different concentrations. Sample points were measured as duplicates. […]

In general, IC50 refers to the point on the concentration scale where inhibition reaches its midpoint.

With `CC[C@@]1(O)C(=O)OCc2c1cc1n(c2=O)Cc2cc3ccccc3nc2-1` [Camptothecin], the IC50 turned out to be 152 nM in experiment [1] (DU145, 24 h incubation, read-out: IC50 (nM) on DNA synthesis, 24 h incubation); 7.5 nM in experiment [1] (DU145, 48 h incubation, read-out: IC50 (nM) on DNA synthesis, 48 h incubation); 3.32 nM in experiment [2].

For the compound `C[C@@H]1C[C@H]2[C@@H]3CCC4=CC(=O)C=C[C@]4(C)[C@@]3(F)[C@@H](O)C[C@]2(C)[C@@]1(O)C(=O)CO` [Dexamethasone], the IC50 at 5-LOX was 0.28 nM.
